One block for each compound: values may come before it.
Assays:
[1] = test system: BT-474; details: 72 h
Summary of the method: (§1)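 A 20 µl suspension of breast cancer cells was placed in 384-well plates that already contained compound at 5 concentrations in 10-fold steps across a compound-specific 10,000-fold range, and the plates were left for 72 h. CellTox Green fluorescence at 485/520 nm gave cell death, and CellTiter-Glo luminescence, read after 10 min at room temperature, gave viability. Each plate was normalised to 0.1 % DMSO and a positive kill control. EC50 was fitted from the curves and censored at the top concentration.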

[2] = test system: MDA-MB-468; details: 72 h
Summary of the method: as §1

[3] = test system: CAL-51; details: 72 h
Summary of the method: as §1

[4] = test system: HCC1143; details: 72 h
Summary of the method: as §1

[5] = test system: MFM-223; details: 72 h
Summary of the method: as §1

[6] = test system: DU-4475; details: 72 h
Summary of the method: as §1

[7] = test system: Hs578T; details: 72 h
Summary of the method: as §1

[8] = test system: CAL-148; details: 72 h
Summary of the method: as §1

[9] = test system: MDA-MB-231; details: 72 h
Summary of the method: as §1

[10] = test system: BT-549; details: 72 h
Summary of the method: as §1

[11] = test system: HCC1937; details: 72 h
Summary of the method: as §1

[12] = test system: CAL-120; details: 72 h
Summary of the method: as §1

[13] = test system: HDQ-P1; details: 72 h
Summary of the method: as §1

[14] = test system: MDA-MB-436; details: 72 h
Summary of the method: as §1

[15] = test system: BT-474; details: 72 h; remark: listed apart in the source
Method: (§2)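 Drug sensitivity and resistance testing (DSRT) of breast cancer cell lines in 384-well plates, 5 concentrations in 10-fold dilutions over a compound-specific 10,000-fold range. After 72 h, cytotoxicity was read by CellTox Green fluorescence and viability by CellTiter-Glo luminescence (multiplexed), normalised to DMSO and benzethonium chloride controls. EC50 is the inflection point of the fitted dose-response curve (bottom asymptote free, so it can be relative for partial curves) and is censored at the highest tested concentration. Rows with DSS 0 (no meaningful response) were excluded.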

[16] = test system: MDA-MB-468; details: 72 h; remark: listed apart in the source
Method: as §2

[17] = test system: CAL-51; details: 72 h; remark: listed apart in the source
Method: as §2

[18] = test system: CAL-148; details: 72 h; remark: listed apart in the source
Method: as §2

[19] = test system: MDA-MB-231; details: 72 h; remark: listed apart in the source
Method: as §2

[20] = test system: BT-549; details: 72 h; remark: listed apart in the source
Method: as §2

[21] = test system: HCC1937; details: 72 h; remark: listed apart in the source
Method: as §2

[22] = test system: BT-474; details: 72 h; remark: listed apart in the source
Summary of the method: (§3)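 Breast cancer cell lines in 20 µl suspension were seeded onto 384-well plates that already held compound dissolved in 5 µl medium and were incubated for 72 h. Viability was measured by adding 2.5 µl CellTiter-Blue for 2 h at 37 °C and reading fluorescence at 560/590 nm. Each plate was normalised to vehicle and a positive kill control and checked by Z'-factor. EC50 was taken from a fitted percent-inhibition dose-response curve, censored at the highest concentration, and rows with a drug sensitivity score of zero were removed.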

[23] = test system: MDA-MB-468; details: 72 h; remark: listed apart in the source
Summary of the method: as §3

[24] = test system: HCC1599; details: 72 h
Summary of the method: as §3

[25] = test system: HCC1143; details: 72 h; remark: listed apart in the source
Summary of the method: as §3

[26] = test system: MFM-223; details: 72 h; remark: listed apart in the source
Summary of the method: as §3

[27] = test system: Hs578T; details: 72 h; remark: listed apart in the source
Summary of the method: as §3

[28] = test system: MDA-MB-231; details: 72 h; remark: listed apart in the source
Summary of the method: as §3

[29] = test system: MDA-MB-468; experiment: drug sensitivity score (DSS), CellTiter-Blue viability (DSS (AUC-based score)); higher = stronger viability inhibition; extreme values may be limits of the assay; details: incubation time: 72 h
Summary of the method: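 A 72 h incubation followed seeding of breast cancer cell lines (20 µl suspension) into 384-well plates holding compound in a 5- or 9-concentration series. CellTiter-Blue, 2.5 µl per well, was incubated 2 h at 37 °C, and fluorescence was measured at 560/590 nm. Normalisation on every plate used 0.1 % DMSO and a positive kill control. From the fitted dose-response curve, the area under the curve was taken as the drug sensitivity score.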

[30] = test system: DU-4475; details: 72 h; remark: listed apart in the source
Summary of the method: as §3

[31] = test system: MDA-MB-453; details: 72 h
Summary of the method: as §3

[32] = test system: CAL-85-1; details: 72 h
Summary of the method: as §3

[33] = test system: HDQ-P1; details: 72 h; remark: listed apart in the source
Summary of the method: as §3

[34] = test system: HCC1599; details: 72 h; remark: listed apart in the source
Summary of the method: as §1

[35] = test system: MCF-10A; details: 72 h
Summary of the method: as §1

[36] = test system: SK-BR-3; details: 72 h
Summary of the method: as §1

[37] = test system: MDA-MB-453; details: 72 h; remark: listed apart in the source
Summary of the method: as §1

[38] = test system: CAL-85-1; details: 72 h; remark: listed apart in the source
Summary of the method: as §1

[39] = test system: HCC1599; details: 72 h; remark: listed apart in the source
Method: as §2

[40] = test system: HCC1143; details: 72 h; remark: listed apart in the source
Method: as §2

[41] = test system: MCF-10A; details: 72 h; remark: listed apart in the source
Method: as §2

[42] = test system: MFM-223; details: 72 h; remark: listed apart in the source
Method: as §2

[43] = test system: Hs578T; details: 72 h; remark: listed apart in the source
Method: as §2

[44] = test system: CAL-120; details: 72 h; remark: listed apart in the source
Method: as §2

[45] = test system: CAL-85-1; details: 72 h; remark: listed apart in the source
Method: as §2

EC50, CellTiter-Glo [1]: 76.1 nM
EC50, CellTiter-Glo [2]: 26.9 nM
EC50, CellTiter-Glo [4]: 41.6 nM
EC50, CellTiter-Glo [9]: 990 nM
EC50, CellTiter-Glo [10]: 177 nM
EC50, CellTiter-Glo [11]: 1740 nM
EC50, CellTiter-Glo [14]: 27 nM
Structure (SMILES): COc1cc(Nc2ncc3c(n2)-c2ccc(Cl)cc2C(c2c(F)cccc2OC)=NC3)ccc1C(=O)O [Alisertib]
EC50, CellTiter-Glo [3]: 76.4 nM
EC50, CellTiter-Glo [5]: 615 nM
EC50, CellTiter-Glo [6]: 24.6 nM
EC50, CellTiter-Glo [7]: 77.9 nM
EC50, CellTiter-Glo [8]: 659 nM
EC50, CellTiter-Glo [12]: 338 nM
EC50, CellTiter-Glo [13]: 8410 nM
EC50, CellTox Green [15]: 8370 nM
EC50, CellTox Green [16]: 15.5 nM
EC50, CellTox Green [17]: 18.2 nM
EC50, CellTox Green [18]: 156 nM
EC50, CellTox Green [19]: 14.8 nM
EC50, CellTox Green [20]: 756 nM
EC50, CellTox Green [21]: 7460 nM

EC50, CellTiter-Blue viability [22]: 0.15 nM
EC50, CellTiter-Blue viability [23]: 1.5 nM
EC50, CellTiter-Blue viability [24]: 61.1 nM
EC50, CellTiter-Blue viability [25]: 1.61 nM
EC50, CellTiter-Blue viability [28]: 1.61 nM
EC50, CellTiter-Blue viability [31]: 6.17 nM
EC50, CellTiter-Glo [1]: 5.38 nM
EC50, CellTiter-Glo [2]: 2.95 nM
EC50, CellTiter-Glo [34]: 19.7 nM
EC50, CellTiter-Glo [4]: 2.51 nM
EC50, CellTiter-Glo [36]: 2.44 nM
EC50, CellTiter-Glo [37]: 2.44 nM
EC50, CellTiter-Glo [9]: 5.07 nM
EC50, CellTiter-Glo [10]: 2.25 nM
EC50, CellTiter-Glo [11]: 2.55 nM
EC50, CellTiter-Glo [14]: 3.49 nM
Structure (SMILES): CC[C@]1(O)C[C@@H]2CN(CCc3c([nH]c4ccccc34)[C@@](C(=O)OC)(c3cc4c(cc3OC)N(C)[C@H]3[C@@](O)(C(=O)OC)[C@H](OC(C)=O)[C@]5(CC)C=CCN6CC[C@]43[C@@H]65)C2)C1 [Vinblastine]
EC50, CellTiter-Blue viability [26]: 36 nM
EC50, CellTiter-Blue viability [27]: 1.3 nM
drug sensitivity score [29]: 21.6
EC50, CellTiter-Blue viability [30]: 52.4 nM
EC50, CellTiter-Blue viability [32]: 6.34 nM
EC50, CellTiter-Blue viability [33]: 5.43 nM
EC50, CellTiter-Glo [3]: 8.68 nM
EC50, CellTiter-Glo [35]: 2.59 nM
EC50, CellTiter-Glo [5]: 12.4 nM
EC50, CellTiter-Glo [6]: 75.5 nM
EC50, CellTiter-Glo [7]: 9.25 nM
EC50, CellTiter-Glo [8]: 8.95 nM
EC50, CellTiter-Glo [12]: 2.04 nM
EC50, CellTiter-Glo [38]: 2.04 nM
EC50, CellTiter-Glo [13]: 5.35 nM
EC50, CellTox Green [15]: 2.92 nM
EC50, CellTox Green [16]: 2.48 nM
EC50, CellTox Green [17]: 3.78 nM
EC50, CellTox Green [39]: 7.49 nM
EC50, CellTox Green [40]: 61.8 nM
EC50, CellTox Green [41]: 11.4 nM
EC50, CellTox Green [42]: 7.9 nM
EC50, CellTox Green [43]: 15.2 nM
EC50, CellTox Green [19]: 15.8 nM
EC50, CellTox Green [20]: 4.29 nM
EC50, CellTox Green [44]: > 1000 nM
EC50, CellTox Green [45]: 9.62 nM
